According to US20210220482A1, “MITOCHONDRIAL COPPER DEPLETION REPROGRAMS THE METABOLISM OF TRIPLE NEGATIVE BREAST CANCER” (The Board of Trustees of the Leland Stanford Junior …, priority 2019, published 2021):
Like-named read-outs stand apart in the source and are kept apart here.

Assays:
MDA-MB-231 cells = assay: Cytotoxicity MTS assay, MDA-MB-231; assay type: cell-based, human; conditions: MDA-MB-231, 24 h, in the presence of serum, read-out: half-maximum inhibitory concentration (IC50)
Description: (§1) Cytotoxicity: For the MTS assay, TNBC and normal cells were seeded into 96-well plates 24 h before the test and cultured in a humidified atmosphere of 5% CO2 and 95% air at 37° C. Cells were then incubated with CDN or control agents with the concentrations indicated in FIG. 2 in complete medium or base medium without FBS supplement. At 24 h after incubation, cells were washed with PBS three times and changed to fresh medium. The viability of the cells after treatment was measured using the MTS assay (CellTiter 96, Promega, cat. no. G3580). The viability was presented as the percentage of control (n=3 per condition for viability). For the trypan blue exclusion test, TNBC cells were seeded into six-well plates 24 h before the test and cultured in a humidified atmosphere of 5% CO2 and 95% air at 37° C. Cells were then incubated with CDN or control agents in complete medium. At 24 h after incubation, cells were washed with PBS three times and collected with a scraper. The cell suspension was then mixed with 0.4% trypan blue dye (1:1; Thermo Fisher Scientific, cat. no. 15250061) and incubated for less than 3 min at room temperature. The viability of the cells was measured with Countess II (Life Technology). The viability was presented as the percentage of control (n=3 per condition for viability).

MDA-MB-468 cells = assay: Cytotoxicity MTS assay, MDA-MB-468; assay type: cell-based, human; conditions: MDA-MB-468, 24 h, in the presence of serum
Description: as §1

[1] = test system: MDA-MB-231 orthotopic tumors; assay: Long-term survival study; assay type: in vivo, nude mice; conditions: i.v. weekly, seven doses, chelator 1.35 mg kg^−1; ATN224 oral gavage 0.7 mg kg^−1 d^−1
Description: The SPN group received an i.v. injection of the same amount of SPN as in the CDN group weekly for seven doses in total. […] The treatment plan was initiated when the average tumor size reached 50 mm^3 and the endpoint of the survival study was primary tumor volume over 500 mm^3 and/or other signs identified by the veterinarian. The tumor volumes were continuously monitored over the treatment plan.

[2] = test system: MDA-MB-231luc orthotopic breast cancer; assay: Copper level in tumor after treatment (CCL-1/d-luciferin imaging); assay type: in vivo, mice; conditions: i.v. 1.35 mg kg^−1 every 3 d, day 25, compared with the control group
Description: For the treatment group, mice were intravenously injected with CDN or control agents every 3 d, with five doses in total. Tumor volume was continuously monitored over the treatment plan. At day 25 after initial treatment, mice were subjected to d-luciferin bioluminescence imaging (150 mg kg^−1) and CCL-1 luminescence imaging (6 mg kg^−1).

[3] = test system: MDA-MB-231 and MDA-MB-468 cells; assay: Western blot of cleaved caspase 3 (apoptosis); assay type: cell-based, human; conditions: 24 h incubation; CDM 1 μM, ATN224 5 μM, inhibitors 1 μM
Description: Then cells were trypsinized, and cell lysates were prepared with RIPA buffer (Thermo, cat. no. 89900). The protein concentrations were quantified by Pierce BCA assay (Thermo Scientific, 23250). Cleaved caspase 3 antibody was purchased from Cell Signaling Technologies (Asp175, no. 9661). SOD1 antibody was from Santa Cruz Biotechnologies (sc-101523).

[4] = test system: MDA-MB-231 and MDA-MB-468 cells; assay: OCR and ECAR measurement (Seahorse); assay type: cell-based, human; conditions: after 1 h of incubation, both cell lines, vs nontreated control
Description: OCR and ECAR measurement. OCR and ECAR were measured by a Seahorse Bioscience instrument (XF96, Agilent). Briefly, on the day following MDA-MB-231 or MDA-MB-468 cell seeding, cells were incubated with CDN or control agents for 24 h (chelator concentration, 1 μM). On the day of measurement, cells were washed three times with D-PBS, changed into fresh medium without phenol red and bicarbonate (Seahorse base medium, cat. no. 103336-100) and equilibrated for 30 min in a 37° C. incubator lacking CO2. Oxygen concentration and extracellular acidification in media were measured at basal conditions and after sequential addition of oligomycin (1 μM, introduced after 28 min), FCCP (1 μM, introduced after 54 min) and rotenone/antimycin A (0.5 μM, introduced after 80 min) (n=8 per condition for OCR and ECAR for each cell line). […] Cells were then changed into Seahorse base medium and equilibrated for 30 min in a 37° C. incubator lacking CO2. Oxygen concentration and extracellular acidification in media were measured at basal conditions and after sequential addition of oligomycin (1 μM, introduced after 28 min), FCCP (1 μM, introduced after 54 min) and rotenone/antimycin A (0.5 μM, introduced after 80 min) (n=6 per condition for OCR and ECAR for each cell line).

MDA-MB-231luc cells = assay: In vitro copper depletion (CCL-1 luminescence, CDM fluorescence); assay type: cell-based, human; conditions: CDN (CDM 1 μM) with excess EDTA, 24 h
Description: In vitro copper depletion: The copper level after CDN or control agent treatment was measured by CCL-1 luminescence imaging or ratiometric fluorescence microscopic imaging of fCDN. […] SPN, 50 μg ml-1) was added and incubation was continued for 24 h. […] Cells were immediately imaged by IVIS Spectrum (PerkinElmer) for 45 min. The integration images of luminescent radiance were presented. […] Images were processed as green/red ratios profiled by ImageJ and presented in pseudo-colors.

[5] = test system: MDA-MB-231 and MDA-MB-468 cells; assay: Cell viability with ROS scavenger MitoTEMPO; assay type: cell-based, human; conditions: MitoTEMPO up to 5 μM
Description: as §1, with “medium. […]” for “medium. At 24 h after incubation, cells were washed with PBS three times and collected with a scraper. The cell suspension was then mixed with 0.4% trypan blue dye (1:1; Thermo Fisher Scientific, cat. no. 15250061) and incubated for less than 3 min at room temperature.”, “Technology). […]” for “Technology). The viability was presented as the percentage of control (n=3 per condition for viability).”
Cellular ATP measurement: ATP levels after CDN or control agent treatment were determined by Adenosine 5-triphosphate Bioluminescent Somatic Cell Assay Kit (Sigma-Aldrich, FLASC). […] The luminescence signals were measured by a Turner Biosystems 20/20n luminometer. The ATP concentration of each group was determined based on the ATP standard assay (n=3 per condition ATP production measurement for each cell line).

In the case of `[SH-].[SH-].[S]=[Mo]=[S]` [TM, tetrathiomolybdate], the IC50 (MDA-MB-231 cells) is reported as > 100 µM and the IC50 (MDA-MB-468 cells) is reported as ~46.3 µM.
For `c1ccc(CN(Cc2ccccn2)Cc2ccccn2)nc1` [TPA, tris[(2-pyridyl)-methyl]amine], the median survival [1] was 35 days, the IC50 (MDA-MB-231 cells; Homo sapiens) was 9.25 ± 2.19 µM and the IC50 (MDA-MB-468 cells; Homo sapiens) was 5.34 ± 1.12 µM. The “copper in the tumor region (CCL-1 to d-luciferin total flux ratio)” value [2] was “successfully depleted the copper in the tumor region”.
With `Cc1nc(-c2nc(-c3ccc(OC(F)(F)F)cc3)no2)nn1Cc1cccc(N2CCC(S(C)(=O)=O)CC2)c1` [IACS-010759] the “apoptosis (cleaved caspase 3)” value [3] was “barely induced apoptosis” and the “oxygen consumption (OCR)” value [4] was “almost completely inhibited the oxygen consumption”.
`C[N+](C)(C)CCO.C[N+](C)(C)CCO.[SH-].[SH-].[S]=[Mo]=[S]` [ATN224] was tested, and the median survival [1] was 32 days and the “apoptosis (cleaved caspase 3)” value [3] was “but not with ATN224 treatment”.
With `O=C(O)CN(CCN(CC(=O)O)CC(=O)O)CC(=O)O` [EDTA, ethylenediaminetetraacetic acid] the “CCL-1 luminescence (labile copper)” value (MDA-MB-231luc cells) was 78.6±11.7 % of the CDN group and the CDM fluorescence (MDA-MB-231luc cells) was 123.7±4.1 % of the CDN group.
With `CC1(C)CC(NC(=O)C[P+](c2ccccc2)(c2ccccc2)c2ccccc2)CC(C)(C)N1[O]` [MitoTEMPO] the “rescue of cells from the CDN treatment effect” value ([5]; CDM 1 μM, 24 h) was “did not rescue the cells” and the “effect on cell viability” value ([5]; medium with or without FBS) was “will not affect the cell viability”.
With `Cc1cc(-c2nc(-c3ccc(OC(F)(F)F)cc3)no2)nn1Cc1ccnc(N2CCN(C3CC3)CC2)c1` [BAY 87-2243] the “apoptosis (cleaved caspase 3)” value [3] was “barely induced apoptosis” and the “oxygen consumption (OCR)” value [4] was “almost completely inhibited the oxygen consumption”.
